Source: ChEMBL document CHEMBL1800055, “Orally active MMP-1 sparing α-tetrahydropyranyl and α-piperidinyl sulfone matrix metalloproteinase (MMP) inhibitors with efficacy in cancer, arthritis, and cardiovascular disease” (J Med Chem, 2010)
Calls of active or inactive are those of the source. The calls are words filed in the database; no cut-off is given here.

Columns and labels:
Interstitial collagenase = biological target: T1, Interstitial collagenase (Homo sapiens, UniProt P03956); type: cell-based, HT-1080
T1 sequence (P03956 whole entry): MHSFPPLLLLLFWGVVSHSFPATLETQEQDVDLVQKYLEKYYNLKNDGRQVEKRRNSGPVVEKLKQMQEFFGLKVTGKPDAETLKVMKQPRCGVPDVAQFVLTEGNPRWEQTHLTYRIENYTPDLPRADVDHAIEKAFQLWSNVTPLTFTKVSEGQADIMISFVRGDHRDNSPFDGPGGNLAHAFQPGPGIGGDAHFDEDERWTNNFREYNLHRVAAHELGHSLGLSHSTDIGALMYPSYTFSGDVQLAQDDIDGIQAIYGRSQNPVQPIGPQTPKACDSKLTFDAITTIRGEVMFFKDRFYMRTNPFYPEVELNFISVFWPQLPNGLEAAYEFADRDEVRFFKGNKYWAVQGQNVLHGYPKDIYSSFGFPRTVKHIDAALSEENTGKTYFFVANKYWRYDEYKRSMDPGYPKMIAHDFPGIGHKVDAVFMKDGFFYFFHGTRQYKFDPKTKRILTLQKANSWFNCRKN

Stromelysin-1 = Stromelysin-1 (Homo sapiens, UniProt P08254)
Stromelysin-1, sequence (P08254 whole entry): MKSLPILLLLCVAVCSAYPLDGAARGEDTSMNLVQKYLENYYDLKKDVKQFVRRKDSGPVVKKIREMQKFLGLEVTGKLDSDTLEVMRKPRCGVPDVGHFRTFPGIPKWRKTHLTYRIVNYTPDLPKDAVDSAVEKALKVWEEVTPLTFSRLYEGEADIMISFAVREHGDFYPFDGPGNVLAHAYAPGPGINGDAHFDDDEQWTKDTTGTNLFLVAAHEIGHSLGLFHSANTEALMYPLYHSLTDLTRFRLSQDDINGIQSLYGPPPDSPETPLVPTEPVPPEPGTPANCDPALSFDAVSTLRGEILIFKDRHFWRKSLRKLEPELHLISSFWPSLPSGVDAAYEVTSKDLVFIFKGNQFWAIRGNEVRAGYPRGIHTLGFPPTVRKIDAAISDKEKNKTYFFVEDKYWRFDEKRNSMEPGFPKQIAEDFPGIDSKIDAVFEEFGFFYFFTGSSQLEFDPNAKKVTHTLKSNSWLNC

[1] = Oral bioavailability in rat at 10 mg/mL; type: ADME, organism-based; conditions: in vivo
Cartilage tissue = assay: Ex vivo inhibition of IL-1 and oncostatin M-induced bovine nasal cartilage degradation assessed as release of hydroxproline measured up to 16 days by mass spectrometry; type: functional, tissue-based; conditions: Bos taurus, 384 h
Matrilysin = biological target: T2, Matrilysin (Homo sapiens, UniProt P09237)
T2 sequence (P09237 whole entry): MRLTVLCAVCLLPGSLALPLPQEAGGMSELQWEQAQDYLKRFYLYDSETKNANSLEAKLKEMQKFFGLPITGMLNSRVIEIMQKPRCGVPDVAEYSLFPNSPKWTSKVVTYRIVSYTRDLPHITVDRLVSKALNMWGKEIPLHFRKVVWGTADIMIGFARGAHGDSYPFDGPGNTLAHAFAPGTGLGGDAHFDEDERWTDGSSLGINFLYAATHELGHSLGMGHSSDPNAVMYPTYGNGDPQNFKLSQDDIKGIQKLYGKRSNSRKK

[2] = biological target: 72 kDa type IV collagenase (Homo sapiens, UniProt P08253)
72 kDa type IV collagenase, sequence (P08253 whole entry): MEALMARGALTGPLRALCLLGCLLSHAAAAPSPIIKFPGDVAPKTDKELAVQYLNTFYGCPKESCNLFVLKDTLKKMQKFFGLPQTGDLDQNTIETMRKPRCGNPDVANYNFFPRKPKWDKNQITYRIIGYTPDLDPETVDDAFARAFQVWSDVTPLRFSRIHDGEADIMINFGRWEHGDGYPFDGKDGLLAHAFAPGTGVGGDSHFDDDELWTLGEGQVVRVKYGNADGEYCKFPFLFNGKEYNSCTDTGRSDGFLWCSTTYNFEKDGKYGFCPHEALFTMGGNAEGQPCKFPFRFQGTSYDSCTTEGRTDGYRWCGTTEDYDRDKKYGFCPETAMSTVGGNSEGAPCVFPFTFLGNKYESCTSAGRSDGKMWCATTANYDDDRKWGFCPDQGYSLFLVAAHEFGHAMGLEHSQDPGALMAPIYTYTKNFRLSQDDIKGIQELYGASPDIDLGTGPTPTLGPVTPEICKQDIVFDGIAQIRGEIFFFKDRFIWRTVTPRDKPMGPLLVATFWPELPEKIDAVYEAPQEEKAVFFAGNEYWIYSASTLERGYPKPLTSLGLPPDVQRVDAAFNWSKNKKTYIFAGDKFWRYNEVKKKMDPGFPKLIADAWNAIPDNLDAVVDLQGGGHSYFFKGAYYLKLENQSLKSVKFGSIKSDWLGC

Neutrophil collagenase = Neutrophil collagenase (Homo sapiens, UniProt P22894)
Neutrophil collagenase, sequence (P22894 whole entry): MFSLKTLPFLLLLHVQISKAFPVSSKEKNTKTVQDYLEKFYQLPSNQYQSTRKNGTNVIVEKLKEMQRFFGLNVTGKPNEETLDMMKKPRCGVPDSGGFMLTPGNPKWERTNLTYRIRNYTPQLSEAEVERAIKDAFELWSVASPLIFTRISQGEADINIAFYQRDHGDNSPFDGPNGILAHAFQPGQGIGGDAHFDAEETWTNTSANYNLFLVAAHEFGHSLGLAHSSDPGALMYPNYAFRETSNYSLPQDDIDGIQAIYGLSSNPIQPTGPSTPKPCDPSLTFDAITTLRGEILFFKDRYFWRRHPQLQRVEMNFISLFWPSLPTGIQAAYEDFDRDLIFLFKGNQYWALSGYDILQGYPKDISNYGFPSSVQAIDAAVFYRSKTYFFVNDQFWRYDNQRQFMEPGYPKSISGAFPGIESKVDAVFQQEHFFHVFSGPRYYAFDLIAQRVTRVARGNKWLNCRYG

Collagenase 3 = Collagenase 3 (Homo sapiens, UniProt P45452)
[3] = Cmax in rat at 10 mg/mL, iv and po; type: ADME, organism-based; conditions: in vivo
[4] = Half life in rat at 10 mg/mL, iv and po; type: ADME, organism-based; conditions: in vivo
Rattus norvegicus [5] = assay: Plasma concentration in rat at 10 mg/mL, iv and po; type: ADME, organism-based; conditions: in vivo
[6] = Cmax in rat at 20 mg/kg, po; type: ADME, organism-based; parameters: dose 20 mg/kg, route oral; conditions: in vivo
[7] = Half life in rat at 20 mg/kg, po; type: ADME, organism-based; parameters: dose 20 mg/kg, route oral; conditions: in vivo
Rattus norvegicus [8] = assay: Plasma concentration in rat at 20 mg/kg, po; type: ADME, organism-based; parameters: dose 20 mg/kg, route oral; conditions: in vivo
[9] = Oral bioavailability in rat at 20 mg/kg; type: ADME, organism-based; conditions: in vivo
Mus musculus = assay: Toxicity in mouse assessed as mortality administered bid for 90 days; type: organism-based; conditions: in vivo, 2160 h
PC-3 [10] = assay: Antitumor activity against human PC3 cells xenografted in BALB/c nu/nu mouse assessed as tumor growth inhibition at 200 mg/kg, po BID measured on 25 to 30 days relative to control; type: functional
PC-3 [11] = assay: Antitumor activity against human PC3 cells xenografted in BALB/c nu/nu mouse assessed as tumor growth inhibition at 25 mg/kg, po BID for 30 days measured on 25 to 30 days relative to control; type: functional
Rattus norvegicus [12] = assay: Cardioprotective activity in rat myocardial infarction model assessed inhibition of left ventricular dilation at 50 mg/kg, po qd for 4 weeks (reference value: 0.69 +/- 0.02 mL); type: functional, Heart left ventricle
PC-3 [13] = assay: Antitumor activity against human PC3 cells xenografted in po dosed BALB/c nu/nu mouse assessed as tumor growth inhibition administered BID measured on 25 to 30 days; type: functional, organism-based
PC-3 [14] = assay: Antitumor activity against human PC3 cells xenografted in BALB/c nu/nu mouse assessed as tumor growth inhibition at 100 mg/kg, po BID measured on 25 to 30 days relative to control; type: functional
MX1 = assay: Antitumor activity against human MX1 cells xenografted in cyclophosphamide-treated nude mouse adjuvant model assessed as increase in mouse survival time at 6 to 50 mg/kg, po BID measured up to 90 days; type: functional, organism-based

Row | SMILES | IC50 (Interstitial collagenase) [nM] | IC50 (Stromelysin-1) [nM] | IC50 (Cartilage tissue) [nM] | IC50 (Matrilysin) [nM] | IC50 [2] [nM] | IC50 (Neutrophil collagenase) [nM] | IC50 (Collagenase 3) [nM] | Cmax [6] [ng/mL] | half-life [7] [h] | Cp (Rattus norvegicus [8]) [ng/mL] | bioavailability [9] [%] | further results
1 | O=C(NO)C1(S(=O)(=O)c2ccc(Oc3ccc(C(F)(F)F)cc3)cc2)CCOCC1 | 8000 | 22 | 70 | > 10000 | 0.1 | 9.4 | 0.4 |  |  |  |  | bioavailability [1]: 33%; Cmax [3]: 4300 ng/mL; half-life [4]: 2.68 h; Cp (Rattus norvegicus [5]): 1154 ng/mL
2 | O=C(NO)C1(S(=O)(=O)c2ccc(Oc3ccc(OC(F)(F)F)cc3)cc2)CCN(Cc2cccnc2)CC1 | 4600 | 42.5 |  | > 10000 | < 0.1 | 1.5 | 0.2 | 52600 | 1.05 | 1900 | 49.8 | 
3 | O=C(NO)C1(S(=O)(=O)c2ccc(Oc3ccc(OC(F)(F)F)cc3)cc2)CCN(Cc2ccccn2)CC1 | 6000 | 115 |  | > 10000 |  | 0.6 | < 0.1 | 36800 | 1.25 | 1850 | 46.8 | 
4 | O=C(NO)C1(S(=O)(=O)c2ccc(Oc3ccc(C(F)(F)F)cc3)cc2)CCN(C2CC2)CC1 |  | 76.8 |  | > 10000 | 0.1 | 1.3 |  | 8320 | 1.48 | 631 | 36.3 | 
5 | O=C(NO)C1(S(=O)(=O)c2ccc(Oc3ccc(OC(F)(F)F)cc3)cc2)CCN(C2CC2)CC1 | 4000 | 22 | 10 | 7000 | < 0.1 | 1.2 |  | 4160 | 2.85 | 440 | 23 | Activity (Mus musculus): Non-toxic; inhibition in vivo at 200 mg/kg (PC-3 [10]): 65%; inhibition in vivo at 25 mg/kg (PC-3 [11]): 49%; Activity (Rattus norvegicus [12]): 0.62 mL; inhibition (PC-3 [13]): Dose-dependent effect; inhibition in vivo at 100 mg/kg (PC-3 [14]): 65%; Activity (MX1): Active
